According to article PMC2034084, “Pharmacokinetics and binding of the bioreductive probe for hypoxia, NITP: effect of route of administration” (British Journal of Cancer, 1995):
Values joined by “and” are separate entries in the source; they are usually repeats but may differ in a detail not shown here. Identical values can stand only once.

Columns and labels:
CaNT tumours = experiment: Bound adducts of NITP in cells from tumours, fluorescent immunochemical staining and flow cytometry; type: in vivo, CBA mice; conditions: for proportion of total cells in the region of bound NITP metabolites: control region 1%
Description: Britsh Journal of Cancer (1995) 72, 1462-1468 ft (32) 1995 Stockton Press All rights reserved 0007-0920/95 $12.00 Pharmacokinetics and binding of the bioreductive probe for hypoxia, NITP: effect of route of administration RJ Hodgkiss, MRL Stratford, MF Dennis and SA Hill Gray Laboratory Cancer Research Trust, P.O. Box 100, Mount Vernon Hospital, Northwood, Middlesex HA6 2JR, UK. Summary The novel compound 7-[4'-(2-nitroimidazol-l-yl)-butyl]-theophylline (NITP) can be used as an immunologically detectable probe for hypoxic cells. Because of the limited water solubility of NITP, it has been administered dissolved in peanut oil with 10% dimethylsulphoxide (DMSO). A new aqueous formulation has been devised, based on a 50% solution of a modified P-cyclodextrin (Molecusol HPB), which increases the water solubility of NITP 10-fold. The pharmacokinetics of NITP in plasma and tumours have been compared following oral and intraperitoneal (i.p.) administration of the NITP in Molecusol, i.p. administration of NITP dissolved in peanut oil + 10% DMSO and injection of a near-saturated aqueous solution of the drug intravenously via the tail vein or i.p. or directly into the tumours. Binding of the marker to hypoxic cells within tumours was also measured after the different routes of administration. The Molecusol vehicle was unexpectedly toxic when administered i.p., but there was no toxicity from NITP dissolved in Molecusol when administered orally. […] Binding of NITP within tumours has also been observed following direct injection of the drug, with minimal whole-body exposure to NITP. […] In particular, bioreductive drugs are specifically activated in hypoxic cells and can target those cells that are resistant to radiotherapy (for review see Stratford, 1992). Numerous methods have been proposed for measuring tumour hypoxia (for review see Hodgkiss and Wardman, 1992), in the hope that this would allow treatment to be optimised for individual patients on the basis of the oxygen status of their tumours. In particular, the hypoxia-specific binding of isotopically labelled 2-nitroimidazoles has been used to identify hypoxic cells in tumours, (e.g. Chapman et al., 1982; Franko and Chapman, 1982; Garrecht and Chap- man, 1983; Raleigh et al., 1985; Rasey et al., 1985; Urtasun et al., 1986). […] The novel compound 7-[4'-(2-nitroimidazol-1-yl)-butyl]- theophylline (NITP), has been described as an immuno- logically detectable bioreductive probe for hypoxic cells (Hodgkiss et al., 1991), and appears to offer promise as a method of quantifying tumour hypoxia in vivo. […]

[1] = Solubility of NITP in water and in Molecusol HPB solution; type: physicochemical; conditions: Molecusol HPB solution vs water
Description: (§1) Britsh Journal of Cancer (1995) 72, 1462-1468 ft (32) 1995 Stockton Press All rights reserved 0007-0920/95 $12.00 Pharmacokinetics and binding of the bioreductive probe for hypoxia, NITP: effect of route of administration RJ Hodgkiss, MRL Stratford, MF Dennis and SA Hill Gray Laboratory Cancer Research Trust, P.O. Box 100, Mount Vernon Hospital, Northwood, Middlesex HA6 2JR, UK. Summary The novel compound 7-[4'-(2-nitroimidazol-l-yl)-butyl]-theophylline (NITP) can be used as an immunologically detectable probe for hypoxic cells. Because of the limited water solubility of NITP, it has been administered dissolved in peanut oil with 10% dimethylsulphoxide (DMSO). A new aqueous formulation has been devised, based on a 50% solution of a modified P-cyclodextrin (Molecusol HPB), which increases the water solubility of NITP 10-fold. […] Binding of the marker to hypoxic cells within tumours was also measured after the different routes of administration. […] The novel compound 7-[4'-(2-nitroimidazol-1-yl)-butyl]- theophylline (NITP), has been described as an immuno- logically detectable bioreductive probe for hypoxic cells (Hodgkiss et al., 1991), and appears to offer promise as a method of quantifying tumour hypoxia in vivo. […]

[2] = Toxicity and tolerability after oral or i.p. administration; type: in vivo, mice
Description: as §1

[3] = Plasma and tumour pharmacokinetics of NITP by HPLC after different routes and vehicles; type: in vivo, CBA mice; conditions: for AUC s.e.m. Tumour: CaNT tumour
Description: Britsh Journal of Cancer (1995) 72, 1462-1468 ft (32) 1995 Stockton Press All rights reserved 0007-0920/95 $12.00 Pharmacokinetics and binding of the bioreductive probe for hypoxia, NITP: effect of route of administration RJ Hodgkiss, MRL Stratford, MF Dennis and SA Hill Gray Laboratory Cancer Research Trust, P.O. Box 100, Mount Vernon Hospital, Northwood, Middlesex HA6 2JR, UK. Summary The novel compound 7-[4'-(2-nitroimidazol-l-yl)-butyl]-theophylline (NITP) can be used as an immunologically detectable probe for hypoxic cells. Because of the limited water solubility of NITP, it has been administered dissolved in peanut oil with 10% dimethylsulphoxide (DMSO). A new aqueous formulation has been devised, based on a 50% solution of a modified P-cyclodextrin (Molecusol HPB), which increases the water solubility of NITP 10-fold. The pharmacokinetics of NITP in plasma and tumours have been compared following oral and intraperitoneal (i.p.) administration of the NITP in Molecusol, i.p. administration of NITP dissolved in peanut oil + 10% DMSO and injection of a near-saturated aqueous solution of the drug intravenously via the tail vein or i.p. or directly into the tumours. Binding of the marker to hypoxic cells within tumours was also measured after the different routes of administration. The Molecusol vehicle was unexpectedly toxic when administered i.p., but there was no toxicity from NITP dissolved in Molecusol when administered orally. […] Binding of NITP within tumours has also been observed following direct injection of the drug, with minimal whole-body exposure to NITP. […] In particular, bioreductive drugs are specifically activated in hypoxic cells and can target those cells that are resistant to radiotherapy (for review see Stratford, 1992). Numerous methods have been proposed for measuring tumour hypoxia (for review see Hodgkiss and Wardman, 1992), in the hope that this would allow treatment to be optimised for individual patients on the basis of the oxygen status of their tumours. In particular, the hypoxia-specific binding of isotopically labelled 2-nitroimidazoles has been used to identify hypoxic cells in tumours, (e.g. Chapman et al., 1982; Franko and Chapman, 1982; Garrecht and Chap- man, 1983; Raleigh et al., 1985; Rasey et al., 1985; Urtasun et al., 1986). Immunological detection of 2-nitroimidazoles has been described (Raleigh et al., 1987; Hodgkiss et al., 1991; Lord et al., 1993) and avoids the administration of radioactive labels, which would be particularly desirable for clinical measurement of tumour hypoxia. The novel compound 7-[4'-(2-nitroimidazol-1-yl)-butyl]- theophylline (NITP), has been described as an immuno- logically detectable bioreductive probe for hypoxic cells (Hodgkiss et al., 1991), and appears to offer promise as a method of quantifying tumour hypoxia in vivo. However, the water solubility of NITP is only c. 2 x 10^-3 M at 20'C and its administration in vivo, dissolved in water or saline, would require an inconveniently large volume of drug solution to be given to achieve an adequate dose level of c. 0.45 lsmol g-'. To circumvent this problem, NITP has been administered in vivo as a solution in peanut oil + 10% DMSO (Hodgkiss et al., 1991). While this formulation has given satisfactory results in the tumour models used, it is clearly unsuitable for clinical administration, and an aqueous preparation of the drug would be preferable. ,-Cyclodextrin consists of seven glucose units joined into a ring, taking up the shape of a three-dimensional torus with a hydrophobic cavity. 'Guest' molecules of a suitable size can fit into the central cavity, and the inclusion complex thus formed can increase the aqueous solubility of lipophilic com- pounds (Szejtli, 1982). […] This paper describes the use of a modified 2-hydroxy-propyl-p-cyclodextrin (Mole- cusol HPB) as an agent for preparing aqueous solutions of NITP. […]

[4] = 0.45 umol g-1 i.p. in peanut oil + 10% DMSO
[5] = 0.45 and 0.09 umol g-1 oral in Molecusol
[6] = Molecusol HPB i.p. 0.09 umol g-1
[7] = Molecusol HPB i.p. 0.45 umol g-1
[8] = Molecusol HPB oral 0.09 umol g-1
[9] = Molecusol HPB oral 0.45 umol g-1, pooled data for three experiments
[10] = Molecusol HPB oral (footnote a), dose printed 0
[11] = Peanut oil/DMSO i.p. 0.45 umol g-1
[12] = plasma, Molecusol HPB i.p. 0.09 umol g-1
[13] = plasma, Molecusol HPB i.p. 0.45 umol g-1
[14] = plasma, Molecusol HPB oral 0.09 umol g-1
[15] = plasma, Molecusol HPB oral 0.45 umol g-1, pooled data for three experiments
[16] = plasma, Molecusol HPB oral (footnote a), dose printed 0
[17] = plasma, Peanut oil/DMSO i.p. 0.45 umol g-1
[18] = plasma, Saline i.p. 0.015 umol g-1
[19] = plasma, Saline i.t. 0.006 umol g-1
[20] = saline i.v. 0.015 umol g-1, non-linear regression, biphasic curve

With `Cn1c(=O)c2c(ncn2CCCCn2ccnc2[N+](=O)[O-])n(C)c1=O` [NITP, 7-[4'-(2-nitroimidazol-l-yl)-butyl]-theophylline] the “binding of NITP in tumours” value (CaNT tumours; direct injection of NITP saline solution into tumours) was “substantial binding”, the “binding of NITP in tumours” value (CaNT tumours; i.v. injection of 2 x 10^-3 M solution in saline) was “little binding” and the “proportion of total cells in the region of bound NITP metabolites” value (CaNT tumours; tumour excised 30 min after oral 0.09 umol g-1 NITP in Molecusol) was 17%. For the same compound, the “proportion of total cells in the region of bound NITP metabolites” value (CaNT tumours; tumour excised 90 min after oral 0.45 umol g-1 NITP in Molecusol) was 19%, the “improvement in the solubility of NITP over that in water alone” value [1] was 10 fold and ~ 10 fold and the toxicity ([2]; NITP in Molecusol i.p., dose reduced by a factor of 5 (0.09 umol g-1)) was “no toxicity”. For the same compound, the tolerability ([2]; oral, up to 0.9 umol g-1 NITP in Molecusol (20 umol g-1)) was “well tolerated with no obvious toxicity”, the “peak plasma concentration relative to that predicted from a uniform distribution of the compound administered” value [3, 4] was “about 20%” and the “time plasma remains at plateau level” value [3, 4] was “about 50 min”. For the same compound, the “time to reach plasma plateau level” value [3, 4] was 10 to 15 min, the “peak plasma level relative to that expected from a uniform distribution of the drug” value [3, 5] was “about 20%” and the plasma clearance half-life [3, 5] was 22 min. The “AUC s.e.m. Tumour” value [3, 6] was 2.01 M min (x 103), the “AUC s.e.m. Tumour” value [3, 7] was 21.2 M min (x 103) and the “AUC s.e.m. Tumour” value [3, 8] was 0.310 M min (x 103). The “AUC s.e.m. Tumour” value [3, 9] was 4.09 M min (x 103), the “AUC s.e.m. Tumour” value [3, 10] was 4.62 M min (x 103) and the “AUC s.e.m. Tumour” value [3, 11] was 6.72 M min (x 103). For the same compound, the “AUC s.e.m. Tumour” value ([3]; Saline i.t. 0.006 umol g-1) was 2.64 M min (x 103), the “AUC s.e.m. Plasma” value [3, 6] was 2.54 M min (x 103) and the “AUC s.e.m. Plasma” value [3, 7] was 27.4 M min (x 103). The “AUC s.e.m. Plasma” value [3, 8] was 0.543 M min (x 103), the “AUC s.e.m. Plasma” value [3, 9] was 5.41 M min (x 103) and the “AUC s.e.m. Plasma” value [3, 10] was 5.73 M min (x 103). The “AUC s.e.m. Plasma” value [3, 11] was 9.26 M min (x 103), the “AUC s.e.m. Plasma” value ([3]; Saline i.p. 0.015 umol g-1) was 0.100 M min (x 103) and the “AUC s.e.m. Plasma” value ([3]; Saline i.t. 0.006 umol g-1) was 0.054 M min (x 103). For the same compound, the “AUC s.e.m. Plasma” value ([3]; Saline i.v. 0.005 umol g-1) was 0.041 M min (x 103), the “AUC s.e.m. Plasma” value ([3]; Saline i.v. 0.015 umol g-1) was 0.177 M min (x 103) and the Half life s.e.m. [3, 12] was 19.7 min. The “Peak concentration + s.e.m.” value [3, 12] was 58.2 µM, the Half life s.e.m. [3, 13] was 36.6 min and the “Peak concentration + s.e.m.” value [3, 13] was 401 µM. The Half life s.e.m. [3, 14] was 22.4 min, the “Peak concentration + s.e.m.” value [3, 14] was 16.2 µM and the Half life s.e.m. [3, 15] was 26.5 min. The “Peak concentration + s.e.m.” value [3, 15] was 104 µM, the Half life s.e.m. [3, 16] was 22.3 min and the “Peak concentration + s.e.m.” value [3, 16] was 127 µM. The Half life s.e.m. [3, 17] was 33.1 min, the “Peak concentration + s.e.m.” value [3, 17] was 96.3 µM and the Half life s.e.m. [3, 18] was 7.84 min. The “Peak concentration + s.e.m.” value [3, 18] was 6.78 µM, the Half life s.e.m. [3, 19] was 9.79 min and the “Peak concentration + s.e.m.” value [3, 19] was 3.68 µM. For the same compound, the Half life s.e.m. ([3]; plasma, Saline i.v. 0.005 umol g-1) was 8.86 min, the Peak concentration ([3]; plasma, Saline i.v. 0.005 umol g-1, 1 min, n = 1) was 4.06 µM and the Half life s.e.m. ([3]; plasma, Saline i.v. 0.015 umol g-1, linear fit to terminal elimination phase) was 9.64 min. For the same compound, the volume of distribution ([3]; saline i.v. 0.015 umol g-1, non-linear regression data) was 0.63 mL/g, the distribution phase half-life [3, 20] was 1.7 min and the elimination half-life [3, 20] was 9.2 min. The “factor by which plasma concentrations lie below the tumour concentration” value ([3]; single i.t. injection of 0.1 ml 2 x 10^-3 M NITP) was at least 20.
